{
  "source": "patent US11485719B2",
  "about": "“Water soluble 3-ketocoumarins” (priority 2017, dated 2022)",
  "key": {"[1]": {"assay": "Reactivity test, water based clear formulation (FT-IR photopolymerization)", "conditions": "3% wt photoinitiator + 3% wt triethanolamine in UCECOAT7200/Ebecryl 350 99:1", "procedure": "The photopolymerizable compositions for the test were prepared dissolving the photoinitiators and the co-initiator, triethanolamine, at a concentration of 3% by weight (wt) each in a mixture 99:1 wt of UCECOAT7200 and Ebecryl 350 (Allnex). The reference compound Omnirad 819 DW (45% wt in water) (COMP-1) was dissolved at a concentration of 6.6% by weight to have the same amount of active content.\n(§1) The photopolymerizable compositions placed in the sample lodgment of a FT-IR (FT-IR 430-Jasco), were exposed to two different sources: • 1) a LED source (400 nm) located at a distance of 25 mm from the sample and at an angle of 30°. (Table 1) • 2) A Mercury lamp (160 W) located at a distance of 65 mm from the sample and at an angle of 30°. (Table 2)\n(§2) IR spectra were acquired at constant time intervals during the photopolymerization and the reduction over the time of the area of the peaks at 1408 and 810 cm^−1 assigned to the acrylic double bonds was determined using the IR software. This allows quantifying the degree of polymerization and therefore the efficiency of the photoinitiator.\nThe results at 400 nm, expressed as % of polymerization over the time, are reported in Table 1 and the results with the Mercury lamp are reported in Table 2."}, "[2]": {"assay": "Reactivity test, water based black inkjet ink (FT-IR photopolymerization)", "conditions": "5.0% wt photoinitiator + 5.0% wt triethanolamine in water based black ink", "procedure": "The photopolymerizable compositions for the test were prepared by dissolving the photoinitiators and the co-initiator triethanolamine at a concentration of 5.0% wt each in a water based black ink for ink-jet printing. The reference compound Omnirad 819 DW (45% wt in water) (COMP-1) was dissolved at a concentration of 11% by weight to have the same amount of active content.\nas §1, with “(Table 3)” for “(Table 1)”, “(Table 4)” for “(Table 2)”\nas §2, with “1408 cm^−1” for “1408”\nThe results at 400 nm, expressed as % of polymerization over the time, are reported in Table 3 and the results with the Mercury lamp are reported in Table 4."}},
  "data": [
    {"compound": "COc1cc(OC)c2cc(C(=O)c3ccc(CCC(=O)O)cc3)c(=O)oc2c1", "note": "[Example 8]", "values": [
      {"measurement": "% of polymerization over the time", "setting": "[1]; LED source 400 nm, 0.5 sec", "value": 7, "unit": "%"},
      {"measurement": "% of polymerization over the time", "setting": "[1]; LED source 400 nm, 2 sec", "value": 15, "unit": "%"},
      {"measurement": "% of polymerization over the time", "setting": "[1]; Mercury lamp 160 W, 0.2 sec", "value": 9, "unit": "%"},
      {"measurement": "% of polymerization over the time", "setting": "[1]; Mercury lamp 160 W, 1 sec", "value": 16, "unit": "%"}
    ]},
    {"compound": "COc1cc(OC)c2cc(C(=O)c3ccc(CC[N+]4(C)CCCCC4)cc3)c(=O)oc2c1.[Cl-]", "note": "[Example 14]", "values": [
      {"measurement": "% of polymerization over the time", "setting": "[2]; LED source 400 nm, 0.5 sec", "value": 38, "unit": "%"},
      {"measurement": "% of polymerization over the time", "setting": "[2]; LED source 400 nm, 2 sec", "value": 62, "unit": "%"},
      {"measurement": "% of polymerization over the time", "setting": "[2]; Mercury lamp 160 W, 0.2 sec", "value": 67, "unit": "%"},
      {"measurement": "% of polymerization over the time", "setting": "[2]; Mercury lamp 160 W, 1 sec", "value": 89, "unit": "%"},
      {"measurement": "% of polymerization over the time", "setting": "[1]; LED source 400 nm, 0.5 sec", "value": 23, "unit": "%"},
      {"measurement": "% of polymerization over the time", "setting": "[1]; LED source 400 nm, 2 sec", "value": 27, "unit": "%"},
      {"measurement": "% of polymerization over the time", "setting": "[1]; Mercury lamp 160 W, 0.2 sec", "value": 15, "unit": "%"},
      {"measurement": "% of polymerization over the time", "setting": "[1]; Mercury lamp 160 W, 1 sec", "value": 23, "unit": "%"}
    ]}
  ]
}
